Reference: patent US7872030B2, “Use of 2-[5-(4-fluorophenyl)-3-pyridylmethylaminomethyl]-chromane and its physiologically acceptable salts” (Merck Patent GmbH, priority 2001, dated 2011)

Experiments:
[1] = system: Parkinsonian cynomolgus monkey; test: MPTP Parkinsonian cynomolgus monkey, Laval University Disability Scale; assay type: in vivo; details: MPTP monkeys
Excerpt: A typical animal model for idiopathic Parkinson's disease is the Parkinsonian cynomolgus monkey according to P. J. Blanchet et al., Exp. Neurology 1998; 153: 214-222. Monkeys render parkinsonian by repeated injections of 1-methyl-4-phenyl-1,2,3,6-tetrahydropyridine (MPTP). Parkinsonian symptoms are qualitatively assessed by the use of the Laval University Disability Scale (B. Gomez-Mancilla et al., 1993; Mov. Disord. 8: 144-150) measuring the following symptoms: posture, mobility, climbing, gait, holding food, vocalizing, grooming, social interaction.

[2] = system: oxotremorine-induced tremor; test: Oxotremorine-induced tremor; details: in vivo
Description: A typical animal model for drug-induced tremors is the oxotremorine-induced tremor (e.g. H. Hallberg and O. Almgren, Acta Physiol. Scand., 1987; 129: 407-13; J. G. Clement and W. R. Dyck, J. Pharmacol. Meth., 1989; 22: 25-36). Oxotremorine induces tremor which is measured by a rating scale.

[3] = system: neuroleptics sensitized monkey; test: Neuroleptics sensitized monkey; assay type: in vivo; details: after haloperidol challenge
Excerpt: Another typical animal model is the neuroleptics sensitized monkey according to D. E. Casey, Psychopharmacology, 1996; 124: 134-140. Monkeys treated repeatedly with conventional neuroleptics are highly sensitive to a subsequent challenge dose of neuroleptic drugs. When challenged, the monkeys immediately show extrapyramidal motor side effects such as dystonia, dyskinesias, akathisia, and bradykinesia which are rated by a scoring system. The conventional neuroleptic drug haloperidol is given as a challenge.

[4] = system: rats with nigrostriatal degeneration; test: Striatonigral degeneration in the rat, turning behavior; assay type: in vivo; details: 6-hydroxydopamine plus quinolinic acid lesioned rats
Excerpt: Another more recent animal model is the striatonigral degeneration approach in the rat according to […] et al., J. Neural Transm. Suppl., 1999; 55: 103-113. Rats receive an unilateral injection of 6-hydroxydopamine into the left medial forebrain bundle followed by an injection of quinolinic acid into the ipsilateral striatum inducing nigrostriatal degeneration. The degeneration results in turning behavior to a challenge with dopaminomimetics such as apomorphine or amphetamine. Turning behavior is measured by an automated recorder.

dopamine D3 receptor = dopamine D3 receptor (Homo sapiens, UniProt P35462)
[5] = system: rats after cardiac arrest; test: Posthypoxic myoclonus in rats; details: rat, in vivo
Description: A typical animal model for myoclonus is myoclonus induced by an acute hypoxic episode according to D. D. Truong et al., Mov. Dsiord., 1994; 9: 201-206). In this model of posthypoxic myoclonus, rats undergo a cardiac arrest for 8 minutes and are resuscitated thereafter. Myoclonic jerks occur spontaneously but can be provoked by auditory stimulation, too, worsening over the days following cardiac arrest.

dopamine D2 receptor = dopamine D2 receptor (Homo sapiens, UniProt P14416); test: D2 antagonism; details: under increased doses
[6] = system: rats challenged with haloperidol; test: Neuroleptics-induced muscle rigidity in rats; details: rat, in vivo
Excerpt: A typical animal model is neuroleptics-induced muscle rigidity in rats according to S. Wolfarth et al, Arch. Pharmacol. 1992; 345: 209-212. Rats are challenged with the conventional neuroleptic drug haloperidol which enhances muscle tone. Muscle tone is electromechanically measured as the resistence to passive flexion and extension of the hind limb.

rats = test: Induction of catalepsy in rats (extrapyramidal motor side effects); assay type: in vivo, rat; details: doses up to 500fold higher compared to the doses effective in the animal models
Description: (§1) Extrapyramidal motor side effects in e.g. rodents are measured by the ability of a drug to induce catalepsy. Catalepsy is defined as a state where an animal continues to remain in an unnormal (nonphysiological ‘uncomfortable’) posture for a long time (e.g.: M. E. Stanley and S. D. Glick, Neuropharmacology, 1996; 15: 393-394; C. J. E. Niemegeers and P. Janssen, Life Sci., 1979, […]). For example, if a hindpaw of a rat is placed on an elevated level, e.g. a platform elevated 3 cm above ground level, a normal rat immediately withdraws the hindpaw from the platform to the ground level. A cataleptic rat remains in this unnatural posture even for minutes.

[7] = system: catalepsy induced by haloperidol; test: Catalepsy induced by conventional antidopaminergic drugs such as haloperidol; assay type: in vivo, rat; details: same dose-range as effective in the animal models
Description: as §1

3-NP treated rats = test: Systemic 3-nitropropionic acid (3-NP) model in rats; assay type: in vivo, rat; details: for nocturnal akinesia (hypoactivity): after four injections of 3-NP (late Huntington's disease); for nocturnal hyperactivity: after two injections of 3-NP (early Huntington's disease)
Excerpt: A typical animal model is the systemic 3-nitropropionic acid (3-NP) model in rats according to C. V. Borlongan et al., Brain Res., 1995; 697: 254-257. […] After two injections of 3-NP, rats display nocturnal hyperactivity reflecting symptoms of early Huntington's disease, whereas rats treated with four injections of 3-NP display nocturnal akinesia (hypoactivity) reflecting symptoms of late Huntington's disease. Nocturnal activity is automatically measured in conventional acitivity cages by infrared beams.

5-HT1A receptor = target: T1, 5-HT1A receptor (Homo sapiens, UniProt P08908); details: compared with buspirone (IC50 […] nmol/l)
T1 sequence (P08908 1-422): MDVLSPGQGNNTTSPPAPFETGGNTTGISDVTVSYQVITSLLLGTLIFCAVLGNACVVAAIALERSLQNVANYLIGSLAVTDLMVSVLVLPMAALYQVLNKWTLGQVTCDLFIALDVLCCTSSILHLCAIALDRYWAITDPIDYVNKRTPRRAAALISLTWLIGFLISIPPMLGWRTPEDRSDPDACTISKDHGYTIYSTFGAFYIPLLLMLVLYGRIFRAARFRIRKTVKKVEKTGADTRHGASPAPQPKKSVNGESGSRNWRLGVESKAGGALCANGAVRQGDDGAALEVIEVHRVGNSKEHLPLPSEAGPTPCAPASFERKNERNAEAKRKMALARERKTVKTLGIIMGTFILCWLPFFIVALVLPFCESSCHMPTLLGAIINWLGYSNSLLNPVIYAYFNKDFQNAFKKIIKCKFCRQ

[8] = system: genetically dystonic hamsters; test: Mutant dystonic hamster; details: in vivo
Excerpt: A typical animal model is the mutant dystonic hamster according to A. Richter and […], Prog. Neurobiol. 1998; 54: 633-677. In this genetically dystonic hamsters, dystonic attacks are provoked by taking the animal from the home cage and placing it on a balance. The dystonic syndrome consists of a sequence of abnormal movements, and the severity of the single symptoms is rated by a scoring system.

Chain of dopamine D3 receptor (P35462 whole entry, species assumed): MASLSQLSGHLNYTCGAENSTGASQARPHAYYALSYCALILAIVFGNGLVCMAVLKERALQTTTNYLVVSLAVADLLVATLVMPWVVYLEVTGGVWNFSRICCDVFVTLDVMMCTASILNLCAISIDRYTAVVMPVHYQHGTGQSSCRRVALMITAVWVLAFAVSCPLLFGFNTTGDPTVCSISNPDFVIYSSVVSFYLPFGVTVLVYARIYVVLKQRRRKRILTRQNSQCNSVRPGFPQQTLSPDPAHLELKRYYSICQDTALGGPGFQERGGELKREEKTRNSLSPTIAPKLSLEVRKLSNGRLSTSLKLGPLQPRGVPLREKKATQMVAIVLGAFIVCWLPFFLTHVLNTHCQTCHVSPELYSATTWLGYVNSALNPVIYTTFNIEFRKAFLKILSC
Chain of dopamine D2 receptor (P14416 whole entry, species assumed): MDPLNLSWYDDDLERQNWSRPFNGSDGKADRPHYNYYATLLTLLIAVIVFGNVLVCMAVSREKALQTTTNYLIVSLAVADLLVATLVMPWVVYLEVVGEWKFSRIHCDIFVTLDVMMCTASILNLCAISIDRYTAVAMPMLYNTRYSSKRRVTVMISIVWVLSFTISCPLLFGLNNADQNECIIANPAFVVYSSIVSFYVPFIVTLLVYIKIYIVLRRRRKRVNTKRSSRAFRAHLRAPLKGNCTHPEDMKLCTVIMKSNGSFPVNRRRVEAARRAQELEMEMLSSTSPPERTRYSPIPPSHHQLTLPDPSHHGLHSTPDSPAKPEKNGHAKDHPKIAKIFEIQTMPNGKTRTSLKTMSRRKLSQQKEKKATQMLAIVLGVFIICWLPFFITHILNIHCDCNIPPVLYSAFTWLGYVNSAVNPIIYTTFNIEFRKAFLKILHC

SMILES | parkinsonian symptoms (Laval University Disability Scale) [1] | total activity [1] | oxotremorine-induced tremors (rating scale) [2] | extrapyramidal motor side effects (dystonia, dyskinesias, akathisia, bradykinesia; score) [3] | turning behavior induced by apomorphine or amphetamine [4] | affinity to the dopamine D3 receptor (dopamine D3 receptor) | number of spontaneous and auditory-evoked myoclonic jerks [5] | D2 antagonism (dopamine D2 receptor) | muscle tone enhanced by haloperidol (resistance to passive flexion and extension of the hind limb) [6] | induction of catalepsy (rats) | prevention of catalepsy induced by conventional antidopaminergic drugs [7] | reversal of already existing catalepsy induced by conventional antidopaminergic drugs such as haloperidol [7] | nocturnal akinesia (hypoactivity) (3-NP treated rats) | nocturnal hyperactivity (3-NP treated rats) | agonist potency at the 5-HT1A receptor in contrast to buspirone (5-HT1A receptor) | severity of dystonic symptoms (score) [8]
Fc1ccc(-c2cncc(CNC[C@@H]3CCc4ccccc4O3)c2)cc1 [(S)-(+)-2-[5-(4-fluorophenyl)-3-pyridylmethylaminomethyl]-chromane] | reduced all the parkinsonian symptoms | increased total activity | inhibit oxotremorine-induced tremors | dose-dependently reduce the extrapyramidal motor side effects | dose-dependently antagonized | high affinity | dose-dependently reduce the number of spontaneous and auditory-evoked myoclonic jerks | exhibit a D2 antagonism | decrease the mucle tone enhanced by haloperidol | do not induce any catalepsy | able to prevent catalepsy | reverses already existing catalepsy | reduce | reduce | more potent agonists | dose-dependently reduce the severity of dystonic symptoms
Fc1ccc(-c2cncc(CNCC3CCc4ccccc4O3)c2)cc1 (racemic) [(R/S)-(−/+)-2-[5-(4-fluorophenyl)-3-pyridylmethylaminomethyl]-chromane] | reduced all the parkinsonian symptoms | increased total activity | inhibit oxotremorine-induced tremors | dose-dependently reduce the extrapyramidal motor side effects | dose-dependently antagonized | high affinity | dose-dependently reduce the number of spontaneous and auditory-evoked myoclonic jerks | exhibit a D2 antagonism | decrease the mucle tone enhanced by haloperidol | do not induce any catalepsy | able to prevent catalepsy | reverses already existing catalepsy | reduce | reduce | more potent agonists | dose-dependently reduce the severity of dystonic symptoms
